Laboratory results reported in patent US6011019A, “Vasoactive effects and free radical generation by β-amyloid peptides” (University of South Florida, priority 1996, dated 2000).

Tests used:
aortic rings = assay: β-amyloid augmentation of phenylephrine (PE) induced contraction of aortic rings; parameters: species or system rat; conditions: for effect on β-amyloid induced enhancement of PE mediated contraction: β-amyloid 5×10^-7 M, PE 4×10^-8 M, L-NMMA 10^-4 M, indomethacin 10^-5 M, SQ 29548 10^-5 M, catalase 1000 units/ml
Method: (§1) The blood vessel preparations were mounted on stainless steel hooks attached to a force-displacement transducer and equilibrated under the optimum tension of 1.3 g for a period of sixty minutes in a tissue bath (10 ml) containing oxygenated (5% CO2 in O2) Kreb's buffer at 37° C. The buffer was changed every fifteen minutes. After equilibration for sixty minutes the viability of the blood vessel with intact endothelium was established by constricting the blood vessel using phenylephrine ([…]). This dose of phenylephrine elicited 80% of the maximum response. […] The vessel preparations were washed for fifteen minutes before various manipulations as described below.
The procedure was then repeated following incubation of the tissue with 10^-6 M β-amyloid for fifteen minutes (P1). The tissue was then rinsed and contractions repeated twice following fifteen minute incubation (P2 & P3) without further addition of β-amyloid. Arrows are shown for points of addition for P3.
Following a fifteen minute incubation, the preparations were contracted with 10^-7 M phenylephrine (PE) as described earlier. Control contractions with PE alone were carried out in presence of the various test compounds. Values represent the mean±SEM of four or more experiments. The heat-inactivated SOD was prepared by placing it in boiling water for thirty minutes followed by cooling prior to use. The hydrogen peroxide-inactivated SOD was prepared by exposing SOD to 10 mM H2 O2 for thirty minutes at pH 8.5 and subsequent separation using Microcon filtration system. The amyloid induced PE contraction was blocked by active SOD. Neither albumin or inactivated SOD had any effect on the amyloid activity.
The effect of preincubation of blood vessel with 10^-6 M β-amyloidon contraction induced by phenylephrine (2, 4, 8, & 16×10^-8 M is shown in Table 1). The maximum contraction in the absence of β-amyloid is taken as 100% and the values obtained following exposure to β-amyloid are expressed as percent of control value. After washing out phenylephrine and acetylcholine of the control contraction, β-amyloid augmented the phenylephrine induced contractions (P1). This effect was blocked by SOD. Washing out the phenylephrine and acetylcholine of the post peptide contraction and repeating the contractions caused further enhancement (P2). Values represent the mean±SEM of nine or more experiments.
The tissue was then incubated for fifteen minutes with β-amyloid (5×10^-7 M) with or without the drug, followed by contractions with PE. The concentrations compounds used were: L-NMMA, an inhibitor of NO synthase (10^-4 M); indomethacin, an inhibitor of the cyclooxygenase pathway (10^-5 M); SQ 29548, a thromboxane A2 receptor antagonist (10^-5 M); and catalase (1000 units/ml). Values are represented as percentage of the maximal contraction obtained with β-amyloid and PE alone and standardized to remove the intrinsic effects (if any) of each drug on PE contraction alone. The results represent the mean±SEM of five or more experiments.

rat coronary arteries = assay: Rat coronary artery constriction and relaxation (U46619, acetylcholine); conditions: for constriction of rat coronary artery by the peptide: 10^-6 M peptide
Method: The effects of β-amyloid peptide were examined on samples of rat coronary arteries prepared as described above. Referring specifically to FIG. 1, rat coronary arteries were treated with β-amyloid peptide (Aβ40) causing constriction of the coronary arteries.
FIG. 3 illustrates the effect of various amyloid fragments on the constriction of rat coronary arteries. Following control constriction with 10^-7 M U46619, the tissue samples were rinsed, equilibrated with buffer, and treated with 10^-6 M Aβ peptides for fifteen minutes. Following treatment with the Aβ peptides, the blood vessels were rinsed and again exposed to U46619. The values are expressed as percent of control constriction produced by U46619 alone.
The effect of pretreatment of coronary arteries with a single dose (10^-6 M) of A40 on acetylcholine induced relaxation is shown in FIG. 20. The blood vessel was preconstricted with 10^-7 M U46619 and relaxed with increasing doses of acetylcholine (10^-9 M to 10^-5 M).

rat aorta = assay: Enhancement of endothelin-1 (ET-1) induced vasoconstriction of rat aorta; conditions: for enhancement of ET-1 contraction: peptide 1 μM (Aβ25-35 1 μM and 5 μM) ten minutes prior to first ET-1 dose
Method: Normal Sprague-Dawley rats were sacrificed by decapitation, and freshly dissected rat aorta was segmented into rings and suspended in Ringers buffer using a tensiometer linked to the MacLab system. Following a two hour equilibration period, the "pretreatment" contraction was carried out. The aortic rings were contracted using a range of doses of endothelin-1 and relaxed using a single odes of acetylcholing (Ach(10^-7 M)). […] The dose of each Aβ peptide was 1 μM, with the exception of Aβ25-35 (1 μM and 5 μM), and was added ten minutes prior to the first ET-1 dose. For SOD treatment we added 150 U/ml 30 seconds before the addition of Aβ.
Endothelium was removed by gently passing a glass pipette, dipped in saline solution, through the lumen of the aortae several time, allowing the pipette to gently brush the endothelial surface. Endothelium was removed from the aortae prior to hanging in the tissue bath system. Both pre-and post treatment contractions involved a single does of ET-1 (5×10^-9 M).
In all cases the mean difference in percentage contraction in the pre- and post-contractions (before and after addition of test compound respectively) was measured, and compared between the two. Endogenous production of ET-1 was measured using an ET-1 RIA kit (Peninsula Laboratories).

blood vessel (rat aorta) = assay: Vascular response of blood vessel rings in tissue bath (basal tension, β-amyloid induced vasoactivity)
Method: Freshly excised rat and porcine blood vessels were placed in Kreb's bicarbonate buffer equilibrated with 5% CO2 in O2. The buffer composition consisted of 118.2 mM NaCl, 4.7 mM KCl, 1.2 mM MgSO4, 2.5 mM CaCl2, 1.2 mM NaH2 PO4, 23 mM NaHCO3 and 11.2 mM glucose. After cleaning the vessels free of fat and other adhering tissues, the vessels were cut into ring segments of approximately 3 mm in length. Care was taken not to damage the intimal surface.
The endothelium was removed from some preparations by rubbing the inside of the lumen with a metal spatula for six to ten seconds and subsequent rinsing with buffer. The removal of endothelium was confirmed by testing for relaxation to acetylcholine [Furchgott and Zawadzki, 1980].
as §1
Referring to FIG. 10, the arrow indicates the addition of 10^-6 M β-amyloid. The control tissue received no β-amyloid. SOD (150 units/ml) was added thirty seconds prior to the addition of β-amyloid. The maximum contraction induced by β-amyloid was 1.14±0.13 (g) and in presence of SOD the contraction was reduced to 0.04±0.02 (g). Values represent the mean±SEM of five separate experiments.

[1] = system: human neuroblastoma cell line (BE(2)-M17); assay: Aβ toxicity on BE(2)-M17 (trypan blue exclusion); assay type: cell-based; conditions: same concentrations as HAEC cultures, up to day eight; data not shown
Excerpt: Trypan blue exclusion was used for the cell viability assay.

[2] = system: human aortic endothelial cel line (HAEC)
Method: (§2) All these cells were maintained at 37° C., under an atmosphere containing 5% CO2. For the present experiments, HAEC and BE(2)-M17 were seeded at densities of 2×10^4 cells per well in 24-23ll clusters.
(§3) The experiments were terminated one half, one, two and three hours post treatment by detachment with Trypsin/EDTA solution and followed by a toxicity assay with trypan blue exclusion. In parallel experiments, cells were attached to a round Thermanox (Nunc) at the bottom of the well, and were stopped three to 24 hours post treatment by fixation with 4% neutral formalin solution which was followed by Hematoxylin-Eosin stain to show morphology.
(§4) Morphological changes in cells were monitored throughout the course of the experiment with an inverse phase-contrast microscope. After termination of the experiments, the cells fixed on the Thermanox were subjected to routine Hematoxylin-Eosin (HE) stain. The morphological characteristics of toxic cells were observed under light microscope and typical results were recorded by photographs.
(§5) For approximate quantification of Aβ toxicity of HAEC, modified procedure for trypan blue exclusion was employed. In brief, the detached cells were resuspended with an appropriate volume of culture media, 20 μl of this cell suspension was mixed with an equivalent volume of 4% Trypan-blue solution thoroughly, and allowed to sit for two minutes after mixing. Approximately 9 μl of the mixture was transferred to a hemocytometer for cell counting. The cell viability was determined by the equation: [formula] In the case of severe toxicity, where some of the cells were lysed, the total cell numbers were adjusted by that of controls. In this experiment, counts for each sample were triplicated.

[3] = system: human aortic endothelial cel line (HAEC); assay: Aβ toxicity on HAEC and its prevention (trypan blue exclusion, HE stain); conditions: pimozide 10 μM, three hours post treatment
Method: as §2, §3, §4, §5

Molecule: albumin
- protection against β-amyloid enhancement of PE induced contraction (aortic rings; preincubation before 10^-6 M β-amyloid, 10^-7 M PE): did not protect

Molecule: Aβ1-28: β-amyloid peptide fragment 1-28
- constriction of rat coronary artery by the peptide (rat coronary arteries): induce constriction of the coronary artery

Molecule: CCCCC[C@H](O)/C=C/[C@@H]1[C@@H](C/C=C\CCCC(=O)O)[C@H]2CO[C@@H]1C2 [U46619]
- constriction of rat coronary artery by vasoconstrictor (rat coronary arteries; 10^-7 M): caused constriction of the blood vessel

Molecule: COc1ccc(CCN(C)CCCC(C#N)(c2ccc(OC)c(OC)c2)C(C)C)cc1OC (stereo not shown) [verapamil]
- ET-1 contraction with the compound alone (rat aorta; verapamil 50 μM): caused enhancement of contraction
- effect on Aβ enhancement of ET-1 contraction (rat aorta; verapamil 50 μM two minutes before Aβ, endothelium present): had no effect on Aβ enhancement

Molecule: CNC(=N)NCCC[C@H](N)C(=O)O [L-NMMA]
- effect on β-amyloid induced enhancement of PE mediated contraction (aortic rings): None of the compounds exerted any significant effect

Molecule: COc1ccc2c(c1)c(CC(=O)O)c(C)n2C(=O)c1ccc(Cl)cc1 [indomethacin]
- effect on β-amyloid induced enhancement of PE mediated contraction (aortic rings): None of the compounds exerted any significant effect

Molecule: Oc1ncnc2[nH]ncc12 [allopurinol]
- effect of allopurinol on Aβ enhancement (rat aorta): No effect on Aβ enhancement

Molecule: CNC[C@H](O)c1cccc(O)c1 [phenylephrine]
- Emax at 1000 µM (blood vessel (rat aorta); Rattus norvegicus, phenylephrine (1 mM), viability test of vessel, read-out: response elicited, of the maximum response): 80%
- constriction of blood vessel (blood vessel (rat aorta); with or without endothelium): constricted in response to phenylephrine with or without endothelium

Molecule: Aβ25-35: fragment of Aβ, widely regarded to be the neurotoxic fragment (GSNKGAIIGLM; Amyloid-beta protein 42; UniProt P05067 696-706, looked up, fragment)
- enhancement of ET-1 contraction (rat aorta): unable to enhance contraction even at five times the concentration of Aβ1-40
- toxic effect on differentiated BE(2)-M17 cells [1]: not toxic effect was noticed
- constriction of rat coronary artery by the peptide (rat coronary arteries): induce constriction of the coronary artery
- cell morphology by HE staining [2]: highly vacuolized cytoplasm, blebbing cell membranes and swelling cell bodies
- cell viability one half hour post treatment [2]: significant reduction of cell viability
- time and dose dependence of toxic effects on HAEC [2]: time-and dose-dependent manner

Molecule: Aβ1-42: β-amyloid peptide with forty-two amino acids; supplied by RBI and/or MD Enterprise
- enhancement of vasoconstriction compared with Aβ1-40 (rat aorta): decreased enhancement of vasoconstriction
- enhancement of ET-1 contraction (rat aorta): also enhanced the ET-1 contraction
- toxic effect on differentiated BE(2)-M17 cells [1]: not toxic effect was noticed
- cell morphology by HE staining [2]: highly vacuolized cytoplasm, blebbing cell membranes and swelling cell bodies
- cell viability one half hour post treatment [2]: significant reduction of cell viability
- time and dose dependence of toxic effects on HAEC [2]: time-and dose-dependent manner

Molecule: O=C(O)CCC/C=C\C[C@@H]1[C@H](CNNC(=O)Nc2ccccc2)[C@H]2CC[C@@H]1O2 [SQ 29548]
- effect on β-amyloid induced enhancement of PE mediated contraction (aortic rings): None of the compounds exerted any significant effect

Molecule: catalase
- effect on β-amyloid induced enhancement of PE mediated contraction (aortic rings): None of the compounds exerted any significant effect

Molecule: O=c1[nH]c2ccccc2n1C1CCN(CCCC(c2ccc(F)cc2)c2ccc(F)cc2)CC1 [pimozide]
- own toxicity of the blocker on HAEC [3]: seems to be toxic itself
